{"source": "patent US20240110185A1", "about": "“INDUCIBLE ANTI-SENSE REPRESSOR SWITCHES AND USES THEREOF” (Trustees of Boston University, priority 2022, published 2024)", "key": {"mCherry GOI": {"system": "mCherry GOI", "test": "Inducible-repressor circuit with spacer and second promoter, % mCherry and FACS (FIG. 8, FIG. 9)", "assay_type": "cell-based", "excerpt": "FIG. 7 is a schematic of an exemplary inducible-repressor circuit (top panel), and a second exemplary inducible-repressor circuit (bottom panel), where the second inducible-repressor circuit is modified to comprise, in the second transcription unit, a spacer and a second promoter, and the DBD, each if which are in the antisense direction to the first transcription unit comprising the first promoter and GOI."}, "mCherry [1]": {"system": "mCherry", "test": "Downstream inducible repression with synTF-RD (zinc finger, KRAB, ERT2) and its repressor construct, % mCherry (FIG. 6B)", "assay_type": "cell-based", "settings": "4-OHT at 0.1, 0.2, 0.5 and 1 μM for d0-d3, 8 days after removal", "excerpt": "FIG. 6A-6B show an alternative embodiment of a synTF and construct system for downstream inducible-repression."}, "mCherry [2]": {"system": "mCherry", "test": "Inducible-repressor circuit with RZ and synTF-MNAS, % mCherry (FIG. 11)", "assay_type": "cell-based", "settings": "4-OHT d0-d3 at 0.1, 0.2, 0.5 and 1 μM, duplicates", "excerpt": "FIG. 10 is a schematic of an exemplary synTF comprising VP64, and an exemplary inducible anti-sense repressor construct comprising, in the second transcription unit, a ribosome entry site (RZ), and a nucleic acid sequence that is the antisense to a portion of the nucleic acid encoding the GOI, which are both 5′ to the second promoter and the DBD. In some embodiments, the antisense to the portion of the GOI, herein referred to as “synTF-mediated nucleic acid sequence” or “synTF-MNAS” can be replaced by any RNAi molecule known to persons of ordinary skill in the art."}, "[3]": {"system": "mCherry fluorescent reporter", "test": "Inducible anti-sense repressor switch: mCherry reporter repression and recovery in 293T cells stably expressing ZF-VP64-ERT2 synTF and the reporter construct", "assay_type": "cell-based, human", "experimental": "(§1) To evaluate the kinetics of this repressor switch, 293T cells where generated to stably express both the inducible anti-sense repressor and fluorescent reporter. In order to determine whether the repressor switch is able to transiently silence GOIs, the inventors treated reporter cells with. 1 uM 4-OHT and measured mCherry reporter fluorescence at 1 day, 2 days, and 3 days. In order to determine whether the repressor switch transiently represses GOIs, the inventors removed 4-OHT and measured fluorescence expression after 2 days, 4 days, 6 days, and 8 days (FIG. 5A-5B).\nThe expression of mCherry was measured at days 0, d1, d2, d3, d4, d6, d7, d9 and d11.\nas §1, with “To assess transcriptional repression of the GOI, inducible antisense repressor construct comprising (i) a first transcriptional unit comprising a constitutively active promoter operatively linked to a mCherry fluorescent reporter GOI was used, and a (ii) a second transcriptional unit comprising an inverted DNA binding motif (DBM) comprising a zinc finger binding array operatively linked to a minimal promoter (FIG. 4A). To” for “To”, “with 0.1” for “with. 1”\nTo assess the inducible transcriptional repressor system, the inventors initially used two vectors. One vector comprises a synthetic inducible repressor construct as defined herein, which compromises a gene of interest (GOI) operatively linked to a constitutive promoter, and downstream, a second transcription unit comprising, in brief, a second promoter, and a binding site for the synTF (e.g., DBM or the DNA binding domain). The second vector encoding the inducible synTF (e.g., small molecule induced synTF) comprising a transcriptional activation domain, DNA-binding domain (DBD) and a nuclear localization domain (or cytosolic domain). First, to construct the nucleic acid encoding the small-molecule inducer synTF, one of our artificial zinc finger proteins was attached (see U.S. Pat. No. 10,138,493 B2 and Patent Application No. US 2020/0377564 A1, incorporated herein by reference) to both a VP64 transcriptional domain and ERT2 domain (FIG. 2A). To assess the inducer-dependent, synTF mediated transcriptional repression of the GOI, an engineered construct comprising a constitutively expressed mCherry fluorescent reporter, operatively connected to a constitutive promoter was created, which had, downstream a minimal promoter and an inverted zinc finger binding array (ZF-BD) (also referred to as a DNA binding motif (DBM) (FIG. 4A).\nTo evaluate the kinetics of this inducible antisense repressor switch, 293T cells were transduced with the vector encoding the synTF and the inducible transcriptional repressor construct to generate a reporter cell line that stably expresses both the inducible synTF and fluorescent reporter. To determine whether the repressor switch was able to transiently silence the GOI mRNA, the cells were treated with three concentrations of 4-OHT and mCherry reporter was measured fluorescence at 1 day, 2 days, and 3 days (FIG. 5A-5B). Next, to determine whether the inducible synTF repressor switch could transiently represses the expression of the GOI, 4-OHT was removed and measured fluorescence expression after 2 days, 4 days, 6 days, and 8 days (FIG. 5B)."}}}
{"smiles": "CC/C(=C(\\c1ccc(O)cc1)c1ccc(OCCN(C)C)cc1)c1ccccc1", "note": "[4-OHT, 4-hydroxytamoxifen]", "values": [{"measurement": "repression of mCherry compared with the construct in the top panel of FIG. 7", "setting": "mCherry GOI; 4-OHT d0-d3 at 0.1 μM, 0.2 M (so in the source), 0.5 μM and 1 μM, duplicates, spacer and second promoter circuit", "value": "greater repression"}, {"measurement": "mCherry expression, FACS flow plot", "setting": "mCherry GOI; 2 days after addition of 1 uM 4-OHT, decreased from 87.9% before", "value": 69.8, "unit": "%"}, {"measurement": "repression of mCherry compared with the synTF and construct of FIG. 5B", "setting": "mCherry [1]", "value": "milder repression"}, {"measurement": "repression of mCherry compared with the construct in the top panel of FIG. 7", "setting": "mCherry [2]", "value": "greater repression"}, {"measurement": "reporter fluorescence expression after 3 days of 4-OHT", "setting": "[3]; 0.1 uM 4-OHT, 293T reporter cells, after 3 days", "value": "strongly repressed"}, {"measurement": "mCherry expression in the presence of 4-OHT, of normal levels", "setting": "[3]; 4-OHT at 0.1 μM, 0.2 μM and 0.5 μM for d0-d3, 293 cells with synTF and construct of FIG. 2A-2B", "value": "about 20%"}, {"measurement": "mCherry levels 8 days after the removal of 4-OHT", "setting": "[3]; 4-OHT at 0.1 μM, 8 days after removal", "value": "back to normal levels"}, {"measurement": "reporter fluorescence expression after 4-OHT removal", "setting": "[3]; 8 days post 4-OHT removal", "value": "restored"}, {"measurement": "mCherry expression restored, of baseline levels", "setting": "[3]; 8 days post 4-OHT removal, 0.1 M 4-OHT treatment (so in the source)", "value": 100, "unit": "%"}, {"measurement": "repression of mCherry expression", "setting": "[3]; all three 4-OHT concentrations, after 3 days, 293T reporter cells", "value": "approx. 80%"}, {"measurement": "mCherry expression after the removal of 4-OHT", "setting": "[3]; d4-d11, after 3 days of 4-OHT", "value": "significantly increased"}]}
